Laboratory results published in patent publication US7375180B2, “Methods and compositions related to IRM compounds and Toll-like receptor 8” (3M Innovative Properties Company, priority 2003, dated 2008).

Key:
TLR8 [1] = target: T1, TLR8 (Homo sapiens, UniProt Q9NR97); experiment: NF-κB-luciferase reporter activation in HEK293-TLR8 cells, 10 μM IRM (Example 1); type: cell-based; parameters: expressed in transfected cells; host or cells: HEK293 (ATCC CRL-1573), pIRES vector, G-418 selected, co-transfected with NFkB-luc reporter; settings: for Fold Increase Over DMSO Control, HEK293-TLR8: 16 hours, luciferase signal, TLR8-transfected cells; for Fold Increase Over DMSO Control, HEK293-TLR8 / HEK293-vector: ratio of TLR8-transfected to vector-transfected cells
T1 sequence (Q9NR97 27-1041): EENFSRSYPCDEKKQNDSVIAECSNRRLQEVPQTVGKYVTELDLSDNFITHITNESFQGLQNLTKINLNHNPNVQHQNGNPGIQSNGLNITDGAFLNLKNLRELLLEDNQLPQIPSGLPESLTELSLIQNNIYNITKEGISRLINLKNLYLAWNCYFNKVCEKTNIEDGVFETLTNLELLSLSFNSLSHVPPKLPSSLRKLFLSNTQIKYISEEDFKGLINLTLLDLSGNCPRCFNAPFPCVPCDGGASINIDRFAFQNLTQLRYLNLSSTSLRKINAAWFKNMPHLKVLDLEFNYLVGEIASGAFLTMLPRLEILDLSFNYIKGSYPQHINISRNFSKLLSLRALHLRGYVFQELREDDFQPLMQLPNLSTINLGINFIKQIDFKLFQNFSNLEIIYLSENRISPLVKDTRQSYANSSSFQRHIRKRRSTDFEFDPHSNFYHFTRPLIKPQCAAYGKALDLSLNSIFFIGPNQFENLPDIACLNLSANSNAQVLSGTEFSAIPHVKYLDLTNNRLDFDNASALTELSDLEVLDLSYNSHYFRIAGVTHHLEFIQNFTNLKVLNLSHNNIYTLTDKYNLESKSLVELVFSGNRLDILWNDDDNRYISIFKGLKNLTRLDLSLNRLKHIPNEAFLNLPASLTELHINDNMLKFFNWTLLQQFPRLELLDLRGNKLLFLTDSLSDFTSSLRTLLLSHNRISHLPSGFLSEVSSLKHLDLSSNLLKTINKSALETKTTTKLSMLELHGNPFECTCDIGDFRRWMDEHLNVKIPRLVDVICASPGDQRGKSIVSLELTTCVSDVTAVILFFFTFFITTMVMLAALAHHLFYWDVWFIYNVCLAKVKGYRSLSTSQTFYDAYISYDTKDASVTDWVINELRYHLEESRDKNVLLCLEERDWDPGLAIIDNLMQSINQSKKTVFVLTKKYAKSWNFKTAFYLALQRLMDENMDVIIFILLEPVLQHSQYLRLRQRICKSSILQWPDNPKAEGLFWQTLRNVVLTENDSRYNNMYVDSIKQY
Description: (§1) HEK293 cells, derived from human embryonic kidney cells, may be co-transfected with (1) either a control vector (HEK293-vector) or a vector construct including human TLR8 (HEK293-TLR8), and (2) an NF-κB-luciferase reporter. The NF-κB-luciferase reporter provides a luciferase signal upon NF-κB activation in a transfected cell. Thus, TLR8-mediated NF-κB activity can be detected by exposing the cells transfected with vector and the cells transfected with the TLR8 construct to a test compound, then comparing the luciferase signal of the vector-transfected cells with the luciferase signal of the cells transfected with the TLR8 construct.
(§2) HEK293 cells were cultured in 90% Minimum Essential Medium (MEM) with 2 mM L-glutamine and Earle's Balanced Salt Solution (Invitrogen Corp., Rockville, Md.) adjusted to contain 1.5 g/L sodium bicarbonate, 0.1 mM non-essential amino acids, and 1.0 mM sodium pyruvate; 10% heat-inactivated fetal calf serum. The cells were incubated at 37° C., 8% CO2.
(§3) The cells were co-transfected with (1) pIRES (BD Biosciences Clontech, Palo Alto, Calif.) either (a) unmodified (HEK293-vector) or (b) containing human TLR8 (HEK293-TLR8), and (2) NFkB-luc reporter (Stratagene, La Jolla, Calif.) in a 10:1 ratio with Fugene 6 transfection reagent (Roche Diagnostics Corp., Indianapolis, Ind.) following the manufacturer's instructions.
(§4) The cells were stimulated with 1 μL of IRM compounds at 1 mM in DMSO (final IRM concentration of 10 μM) or 1 μL DMSO as a control. The plates were then incubated an additional 16 hours at 37° C., 5% CO2. Luminescence was measured on an LMAX luminometer (Molecular Devices Corp., Sunnyvale, Calif.).

HEK293-vector = experiment: NF-κB-luciferase reporter activation in HEK293-vector control cells, 10 μM IRM (Example 1); type: cell-based, human; settings: 16 hours, luciferase signal, vector-transfected cells
Description: as §1, §2, §3, §4

TLR8 [2] = target: T1, TLR8; experiment: Identification as TLR8 activator or non-activator (negative control compound); type: cell-based; settings: used as negative control in monocyte, dendritic cell and macrophage tests

Row | Compound | Fold Increase Over DMSO Control, HEK293-TLR8 (TLR8 [1]) [fold] | Fold Increase Over DMSO Control, HEK293-TLR8 / HEK293-vector (TLR8 [1]) | Fold Increase Over DMSO Control, HEK293-vector (HEK293-vector) [fold] | fold induction at 10 µM (HEK293-vector; Homo sapiens, read-out: Fold Increase Over DMSO Control, HEK293-vector) | TLR8 activation (in words) (TLR8 [2])
1 | CCOCc1nc2c(N)nc3ccccc3c2n1CCCNC(=S)Nc1cccc(C#N)c1 [IRM 14, N-{3-[4-amino-2-(ethoxymethyl)-1H-imidazo[4,5-c]quinolin-1-yl]propyl}-n′-(3-cyanophenyl)thiourea] | 10.00 | 7.9 | 1.26 |  | 
2 | CCCCc1nc2c(N)nc3ccccc3c2n1CC(C)(C)CNC(=O)c1ccccc1 [IRM 15, N-[3-(4-amino-2-butyl-1H-imidazo[4,5-c]quinolin-1-yl)-2,2-dimethylpropyl]benzamide] | 2.14 | 2.7 |  | 0.78 | 
3 | CCc1nc2c(N)nc3ccccc3c2n1CCCCNS(C)(=O)=O [IRM 16, N-[4-(4-amino-2-ethyl-1H-imidazo[4,5-c]quinolin-1-yl)butyl]methanesulfonamide] |  |  |  |  | does not activate TLR8
